Common to all, as to type: biochemical
The target of one assay is T1, recombinant human DDAHII (Homo sapiens, UniProt O95865).
T1 construct: The entire human DDAHII open reading frame was PCR amplified from oligo dT primed human kidney cDNA; made in house; host or cells: E. coli DH5α, soluble fraction of the lysate, not purified
T1 sequence (O95865 1-285): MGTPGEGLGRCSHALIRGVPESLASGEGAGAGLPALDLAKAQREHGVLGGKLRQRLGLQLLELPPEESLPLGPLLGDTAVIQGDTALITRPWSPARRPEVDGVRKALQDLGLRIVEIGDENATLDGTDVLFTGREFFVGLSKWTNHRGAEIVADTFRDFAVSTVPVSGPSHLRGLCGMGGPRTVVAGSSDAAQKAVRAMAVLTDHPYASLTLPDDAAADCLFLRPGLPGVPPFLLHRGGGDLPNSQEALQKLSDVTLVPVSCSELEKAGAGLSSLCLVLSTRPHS
Kind of assay: DDAH assay, [14C]L-NMMA to [14C]citrulline, lysates of E. coli expressing recombinant human DDAHII. The conditions noted are these: E. coli lysate, 37° C., 60 min, pH 6.5; for effect of competition on metabolism of [14C] L-NMMA by recombinant DDAHII: molar excess of cold competitor. The text has this: The entire human DDAHII open reading frame was PCR amplified from oligo dT primed human kidney cDNA using oligos HDDAHII.1 and HDDAHII.2. Oligo HDDAH II.1 is complementary to base pairs 2-15 of the human DDAHII cDNA and contains an EcoRI site in frame with the EcoTI site of pPROX.HTa (Life Technologies). HDDAHI.2 is complementary to base pairs 858-840 of the human DDAHII cDNA and contains an artificial XbaI site. PCR produced a single product of ˜850 bp which was digested with EcoRI and Xbai, ligated into EcoRI and XbaI digested pRPROX.HTa and transformed into compotent E.coli DH5α. A positive clone (pPDDAHII) containing an insert of 858 bp was identified and the insert sequenced on both stands. For expression of recombinant human DDAHII, E.coli were grown in liquid culture at 25 ° C. to an OD600 of 0.5-0.6. Expression was then induced by the addition of IPTG to a final concentration of 1 mM and incubation continued for a further two hours. Following induction, cells were collected by centrifugation, weighed and resuspended in ice cold assay buffer (100 mM Na2HPO4 pH 6.5) at 1 g cells/ml. Cells were disrupted by sonication (6×10 secs, with 10 sec. intervals) and centriguged at 50,000 g to separate soluble material from insoluble cell debris.
Aliquots of E.coli lysates were incubated at 37° C. for 60 min. with […] of 100 mM Na2HPO4 pH 6.5 containing 0.02 μCi [^14C]L-NMMA as described previously (MacAllister et al., 1996, Br. J. Pharmacol. 115, 1001-1004). Following incubation samples were prepared for determination of [^14C] citrulline production by scintillation counting. Reactions were vortexed with 1 ml of 50% (w/v) dowex 50X8-400, centrifuged at 10,000 g for 5 min and then 500 μl of the supernatant was mixed with 5 ml of liquid scintillation fluid and the [^14C] content determined.

Assay [1] deals with T2, P. aeruginosa DDAH (PaDDAH) (Pseudomonas aeruginosa, UniProt Q9I4E3).
T2 construct: The inserts containing the open reading frames of the bacterial DDAHs were excised from the vector; made in house; host or cells: E. coli DH5α, cell lysate
T2 sequence (Q9I4E3 whole entry): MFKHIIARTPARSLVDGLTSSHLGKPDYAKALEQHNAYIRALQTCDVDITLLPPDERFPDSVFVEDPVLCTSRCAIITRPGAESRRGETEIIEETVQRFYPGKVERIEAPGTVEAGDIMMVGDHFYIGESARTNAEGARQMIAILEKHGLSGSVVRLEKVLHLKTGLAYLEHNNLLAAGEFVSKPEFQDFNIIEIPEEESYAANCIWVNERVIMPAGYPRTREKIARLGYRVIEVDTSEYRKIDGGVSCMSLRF
Kind of assay: DDAH assay, cell lysates containing recombinant P. aeruginosa DDAH. The conditions noted are these: 10 mM. As to the method: (§1) The effect of 10 mM ADMA and SDMA on recombinant ScDDAH and paDDAH was studied using the assay conditions described in the material and methods section below. Assays were carried out in triplicate on aliquots of cell lysates containing empty vector, scDDAH cDNA or paDDAH cDNA and data was expressed as a mean of the total number of replicates after subtraction of background. The results shown are the mean of three independent experiments.
(§2) Samples were assayed by incubating 100 μl of cells lysates with an equal volume of assay mix (100 mM Na2HPO4 pH 6.5, containing 0.02 μCi [^14C] L-NMMA and 100 μM cold L-NMMA) at 37° C. for 60 min, as previously reported. The samples were then prepared for scintillation counting to measure the production of [^14C] citrulline by adding 400 μl of 50% (w/v) Dowex 50X-400 to the reactions, vortexing and centrifugation at 13000 g for 2 min. The [^14C] content of 100 μl of supernatant in 1 ml scintillation fluid was then determined.
(§3) For expression of the recombinant proteins, a positive clone was picked and grown in liquid media supplemented with 100 μg/ml ampicillin. […]

Assay [2] has as its system S. coelicolor DDAH (ScDDAH). Kind of assay: DDAH assay, cell lysates containing recombinant S. coelicolor DDAH. Particulars: 10 mM. On the procedure: as §1, §2, §3

Turning to `CNC(=N)NCC[C@H](N)C(=O)O` [4124W, S-2-amino-4(3-methylguanidino)butanoic acid], on recombinant human DDAHII, the “effect of DDAH inhibitor on metabolism of [14C] L-NMMA by recombinant DDAHII” value is on record as “inhibited”.
Take `CN(C)C(N)=NCCC[C@H](N)C(=O)O` [ADMA, N^GN′^G dimethyl-L-arginine]: at recombinant human DDAHII, the “effect of competition on metabolism of [14C] L-NMMA by recombinant DDAHII” value was “inhibited”. In addition, the “relative effect on the metabolism of L-NMMA” value in assay [1] (ADMA compared with SDMA, PaDDAH) was “greater effect than SDMA”; in assay [2] (ADMA compared with SDMA, ScDDAH), “greater effect than SDMA”. In addition, the “competition with L-NMMA as substrate (metabolism of [14C] L-NMMA)” value in assay [1] (PaDDAH cell lysate, FIG. 7) was “compete with L-NMMA as substrates”; in assay [2] (ScDDAH cell lysate, FIG. 7) it was “compete with L-NMMA as substrates”.
`CNC(=N)NCCC[C@H](N)C(=O)O` [L-NMMA, N^G monomethyl-L-arginine]: the “effect of competition on metabolism of [14C] L-NMMA by recombinant DDAHII” value at recombinant human DDAHII is “inhibited”.
Still for that read-out and setting: under `NC(=O)NCCC[C@H](N)C(=O)O` [citrulline] stands “inhibited”.

Values taken from US20050153315A1, “Dimethylarginine dimethylaminohydrolases” (UNIVERSITY COLLEGE LONDON, priority 1999, published 2005).
